Tests used:
[1] = target: Platelet-derived growth factor receptor beta (Homo sapiens, UniProt P09619); test: Inhibitory activity against PDGFRbeta kinase
[2] = test system: LNCaP; test: Antiproliferative activity against human prostate tumor cell line LnCAP; type: functional, cell-based
[3] = test system: NCI-H460; test: Antiproliferative activity against human lung tumor cell line H460; type: functional, cell-based
[4] = target: Tyrosine-protein kinase Fyn (Homo sapiens, UniProt P06241); test: Inhibitory activity against FYN
Chain of Tyrosine-protein kinase Fyn (P06241 whole entry): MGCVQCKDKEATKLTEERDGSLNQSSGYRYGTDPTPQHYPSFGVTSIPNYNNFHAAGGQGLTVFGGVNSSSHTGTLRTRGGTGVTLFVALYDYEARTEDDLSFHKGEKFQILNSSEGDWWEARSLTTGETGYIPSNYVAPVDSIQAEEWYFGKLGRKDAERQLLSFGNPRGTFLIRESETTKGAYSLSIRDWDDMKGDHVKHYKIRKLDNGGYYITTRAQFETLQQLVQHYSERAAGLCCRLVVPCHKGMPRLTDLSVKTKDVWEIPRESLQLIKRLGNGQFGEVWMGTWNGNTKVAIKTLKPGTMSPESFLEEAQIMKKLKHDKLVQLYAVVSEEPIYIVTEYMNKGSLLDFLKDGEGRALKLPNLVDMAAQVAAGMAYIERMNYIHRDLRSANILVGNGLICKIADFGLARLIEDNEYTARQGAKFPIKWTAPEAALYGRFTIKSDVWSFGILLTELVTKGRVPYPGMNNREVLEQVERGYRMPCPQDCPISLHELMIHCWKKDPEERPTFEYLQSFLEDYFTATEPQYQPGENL

[5] = test system: HUVEC; test: Antiproliferative activity against LSGS stimulated HUVEC; type: functional, cell-based; details: Homo sapiens
[6] = target: Vascular endothelial growth factor receptor (Homo sapiens, UniProt P17948+P35916+P35968); test: Inhibitory activity against VEGFR; type: protein assay
[7] = target: Cyclin-dependent kinase 7 (Homo sapiens, UniProt P50613); test: Inhibitory activity against CDK7
Chain of Cyclin-dependent kinase 7 (P50613 whole entry): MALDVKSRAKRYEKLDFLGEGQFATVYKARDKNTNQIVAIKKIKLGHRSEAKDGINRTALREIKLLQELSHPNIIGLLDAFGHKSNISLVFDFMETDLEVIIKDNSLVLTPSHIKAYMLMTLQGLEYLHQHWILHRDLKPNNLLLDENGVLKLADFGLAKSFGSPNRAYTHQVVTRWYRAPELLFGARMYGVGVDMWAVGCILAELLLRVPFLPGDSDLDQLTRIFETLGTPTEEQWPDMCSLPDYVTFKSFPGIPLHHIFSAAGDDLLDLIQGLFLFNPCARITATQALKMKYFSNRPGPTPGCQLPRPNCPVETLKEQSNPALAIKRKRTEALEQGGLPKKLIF

[8] = target: Cyclin-dependent kinase 1 (Homo sapiens, UniProt P06493); test: Inhibitory activity against CDK1
Chain of Cyclin-dependent kinase 1 (P06493 whole entry): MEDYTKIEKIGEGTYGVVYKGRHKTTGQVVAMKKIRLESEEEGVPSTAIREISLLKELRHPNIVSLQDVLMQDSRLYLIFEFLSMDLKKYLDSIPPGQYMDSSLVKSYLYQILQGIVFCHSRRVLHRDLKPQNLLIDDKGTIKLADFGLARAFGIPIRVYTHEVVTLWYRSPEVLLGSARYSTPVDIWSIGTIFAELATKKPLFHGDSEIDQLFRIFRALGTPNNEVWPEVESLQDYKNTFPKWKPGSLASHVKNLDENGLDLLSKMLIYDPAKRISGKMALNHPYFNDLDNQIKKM

[9] = target: Proto-oncogene tyrosine-protein kinase Src (Homo sapiens, UniProt P12931); test: Inhibitory activity against c-SRC
Chain of Proto-oncogene tyrosine-protein kinase Src (P12931 2-536 limits assumed): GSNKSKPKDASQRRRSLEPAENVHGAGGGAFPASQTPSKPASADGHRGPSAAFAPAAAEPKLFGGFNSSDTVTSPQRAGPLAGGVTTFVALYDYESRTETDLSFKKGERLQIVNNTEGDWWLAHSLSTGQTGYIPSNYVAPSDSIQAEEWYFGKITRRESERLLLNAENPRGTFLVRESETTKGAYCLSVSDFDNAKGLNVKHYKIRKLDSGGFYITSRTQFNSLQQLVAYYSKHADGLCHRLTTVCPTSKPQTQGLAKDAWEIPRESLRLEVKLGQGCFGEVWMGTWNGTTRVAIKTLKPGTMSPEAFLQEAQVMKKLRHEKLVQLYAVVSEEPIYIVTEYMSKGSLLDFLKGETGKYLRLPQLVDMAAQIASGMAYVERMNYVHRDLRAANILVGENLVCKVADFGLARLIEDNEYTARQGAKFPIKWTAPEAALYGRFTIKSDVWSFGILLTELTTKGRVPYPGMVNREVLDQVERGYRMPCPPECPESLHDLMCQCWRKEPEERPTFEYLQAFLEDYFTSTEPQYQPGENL

[10] = test system: U-87 MG; test: Antiproliferative activity against human glioma tumor cell line U87MG; type: functional, cell-based, U-87MG ATCC
[11] = test system: PC-3; test: Antiproliferative activity against human prostate tumor cell line PC3; type: functional, cell-based
[12] = target: Glycogen synthase kinase-3 (Homo sapiens, UniProt P49840+P49841); test: Inhibitory activity against GSK3; type: protein assay
[13] = test system: ASPC1; test: Antiproliferative activity against human pancreatic tumor cell line AsPC1; type: functional, cell-based
[14] = target: cAMP-dependent protein kinase (PKA) (Homo sapiens, UniProt P22694+P17612+P22612); test: Inhibitory activity against PKA; type: protein assay
[15] = target: Insulin receptor (Homo sapiens, UniProt P06213); test: Inhibitory activity against IRK
[16] = target: Casein kinase II (Homo sapiens, UniProt P19784+P67870+P68400); test: Inhibitory activity against Casein Kinase 2; type: protein-complex assay
[17] = test system: LoVo; test: Antiproliferative activity against human colon tumor cell line LoVo; type: functional, cell-based
[18] = Inhibitory activity against Calmodulin Kinase
[19] = test system: A-375; test: Antiproliferative activity against human melanoma tumor cell line A375; type: functional, cell-based
[20] = target: Cyclin-dependent kinase 4 (Homo sapiens, UniProt P11802); test: Inhibitory activity against CDK4
[21] = target: Mitogen-activated protein kinase 1 (Homo sapiens, UniProt P28482); test: Inhibitory activity against MAPK
[22] = test system: T47D; test: Antiproliferative activity against human breast tumor cell line T47D; type: functional, cell-based
[23] = target: Receptor tyrosine-protein kinase erbB-2 (Homo sapiens, UniProt P04626); test: Inhibitory activity against HER2
[24] = target: Cyclin-dependent kinase 2 (Homo sapiens, UniProt P24941); test: Inhibitory activity against CDK2
[25] = target: Focal adhesion kinase 1 (Homo sapiens, UniProt Q05397); test: Inhibitory activity against FAK
Chain of Focal adhesion kinase 1 (Q05397 whole entry): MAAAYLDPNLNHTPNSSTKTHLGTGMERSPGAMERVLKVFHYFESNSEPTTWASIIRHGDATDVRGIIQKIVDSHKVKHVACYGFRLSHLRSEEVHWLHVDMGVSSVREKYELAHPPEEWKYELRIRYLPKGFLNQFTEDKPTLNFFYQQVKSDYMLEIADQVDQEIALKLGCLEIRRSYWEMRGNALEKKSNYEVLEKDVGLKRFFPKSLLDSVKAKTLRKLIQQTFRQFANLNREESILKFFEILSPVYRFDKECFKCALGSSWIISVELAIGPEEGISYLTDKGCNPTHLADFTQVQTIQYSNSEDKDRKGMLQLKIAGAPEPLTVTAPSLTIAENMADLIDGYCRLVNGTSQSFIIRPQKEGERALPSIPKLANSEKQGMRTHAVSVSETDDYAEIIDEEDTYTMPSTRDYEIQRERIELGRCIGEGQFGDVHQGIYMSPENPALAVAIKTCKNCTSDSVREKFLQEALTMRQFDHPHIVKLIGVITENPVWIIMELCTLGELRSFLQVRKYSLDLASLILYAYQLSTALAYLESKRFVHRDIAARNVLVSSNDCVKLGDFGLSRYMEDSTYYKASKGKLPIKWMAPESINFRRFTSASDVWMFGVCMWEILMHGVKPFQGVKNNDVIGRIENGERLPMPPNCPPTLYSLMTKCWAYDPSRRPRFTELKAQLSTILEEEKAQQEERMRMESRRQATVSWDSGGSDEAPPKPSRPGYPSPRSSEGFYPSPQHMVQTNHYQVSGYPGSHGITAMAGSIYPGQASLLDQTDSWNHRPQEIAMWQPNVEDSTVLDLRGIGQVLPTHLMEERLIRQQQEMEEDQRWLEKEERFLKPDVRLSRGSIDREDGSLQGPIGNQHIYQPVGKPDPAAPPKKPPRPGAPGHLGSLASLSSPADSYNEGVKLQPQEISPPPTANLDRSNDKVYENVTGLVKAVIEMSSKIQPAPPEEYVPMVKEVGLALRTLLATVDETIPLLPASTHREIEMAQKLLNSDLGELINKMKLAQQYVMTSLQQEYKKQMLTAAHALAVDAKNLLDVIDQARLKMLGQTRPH

[26] = target: Fibroblast growth factor receptor 1 (Homo sapiens, UniProt P11362); test: Inhibitory activity against bFGFR1
[27] = target: Platelet-derived growth factor receptor alpha (Homo sapiens, UniProt P16234); test: Inhibitory activity against PDGFRalpha
Chain of Platelet-derived growth factor receptor alpha (P16234 whole entry): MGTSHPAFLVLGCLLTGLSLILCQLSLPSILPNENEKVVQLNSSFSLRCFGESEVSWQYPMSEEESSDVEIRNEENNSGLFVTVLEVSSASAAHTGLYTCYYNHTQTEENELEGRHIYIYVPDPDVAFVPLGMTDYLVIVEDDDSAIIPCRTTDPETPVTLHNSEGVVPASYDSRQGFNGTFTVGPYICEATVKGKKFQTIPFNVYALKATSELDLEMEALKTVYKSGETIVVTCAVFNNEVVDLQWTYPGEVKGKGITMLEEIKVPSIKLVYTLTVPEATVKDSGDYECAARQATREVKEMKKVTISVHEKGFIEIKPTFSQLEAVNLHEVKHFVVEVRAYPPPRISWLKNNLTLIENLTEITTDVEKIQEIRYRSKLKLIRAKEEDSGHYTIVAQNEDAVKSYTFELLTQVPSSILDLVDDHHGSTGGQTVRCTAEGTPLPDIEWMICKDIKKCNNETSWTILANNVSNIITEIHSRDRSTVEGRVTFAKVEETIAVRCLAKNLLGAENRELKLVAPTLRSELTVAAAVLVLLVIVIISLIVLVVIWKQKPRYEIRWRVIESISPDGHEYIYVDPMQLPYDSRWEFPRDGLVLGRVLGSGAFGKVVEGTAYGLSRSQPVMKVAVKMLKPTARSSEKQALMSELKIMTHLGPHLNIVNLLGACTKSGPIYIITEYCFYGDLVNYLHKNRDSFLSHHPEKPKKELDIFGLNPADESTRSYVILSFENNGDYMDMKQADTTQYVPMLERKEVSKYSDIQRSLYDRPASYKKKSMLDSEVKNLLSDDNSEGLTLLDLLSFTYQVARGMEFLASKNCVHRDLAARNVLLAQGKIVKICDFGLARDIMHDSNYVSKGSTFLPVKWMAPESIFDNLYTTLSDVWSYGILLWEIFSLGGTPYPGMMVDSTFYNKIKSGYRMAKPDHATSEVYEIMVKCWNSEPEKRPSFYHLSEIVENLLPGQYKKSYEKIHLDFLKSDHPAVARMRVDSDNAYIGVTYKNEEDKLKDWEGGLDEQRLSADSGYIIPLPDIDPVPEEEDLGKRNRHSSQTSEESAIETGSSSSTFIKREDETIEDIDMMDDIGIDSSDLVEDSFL

Chain of Platelet-derived growth factor receptor beta (P09619 whole entry): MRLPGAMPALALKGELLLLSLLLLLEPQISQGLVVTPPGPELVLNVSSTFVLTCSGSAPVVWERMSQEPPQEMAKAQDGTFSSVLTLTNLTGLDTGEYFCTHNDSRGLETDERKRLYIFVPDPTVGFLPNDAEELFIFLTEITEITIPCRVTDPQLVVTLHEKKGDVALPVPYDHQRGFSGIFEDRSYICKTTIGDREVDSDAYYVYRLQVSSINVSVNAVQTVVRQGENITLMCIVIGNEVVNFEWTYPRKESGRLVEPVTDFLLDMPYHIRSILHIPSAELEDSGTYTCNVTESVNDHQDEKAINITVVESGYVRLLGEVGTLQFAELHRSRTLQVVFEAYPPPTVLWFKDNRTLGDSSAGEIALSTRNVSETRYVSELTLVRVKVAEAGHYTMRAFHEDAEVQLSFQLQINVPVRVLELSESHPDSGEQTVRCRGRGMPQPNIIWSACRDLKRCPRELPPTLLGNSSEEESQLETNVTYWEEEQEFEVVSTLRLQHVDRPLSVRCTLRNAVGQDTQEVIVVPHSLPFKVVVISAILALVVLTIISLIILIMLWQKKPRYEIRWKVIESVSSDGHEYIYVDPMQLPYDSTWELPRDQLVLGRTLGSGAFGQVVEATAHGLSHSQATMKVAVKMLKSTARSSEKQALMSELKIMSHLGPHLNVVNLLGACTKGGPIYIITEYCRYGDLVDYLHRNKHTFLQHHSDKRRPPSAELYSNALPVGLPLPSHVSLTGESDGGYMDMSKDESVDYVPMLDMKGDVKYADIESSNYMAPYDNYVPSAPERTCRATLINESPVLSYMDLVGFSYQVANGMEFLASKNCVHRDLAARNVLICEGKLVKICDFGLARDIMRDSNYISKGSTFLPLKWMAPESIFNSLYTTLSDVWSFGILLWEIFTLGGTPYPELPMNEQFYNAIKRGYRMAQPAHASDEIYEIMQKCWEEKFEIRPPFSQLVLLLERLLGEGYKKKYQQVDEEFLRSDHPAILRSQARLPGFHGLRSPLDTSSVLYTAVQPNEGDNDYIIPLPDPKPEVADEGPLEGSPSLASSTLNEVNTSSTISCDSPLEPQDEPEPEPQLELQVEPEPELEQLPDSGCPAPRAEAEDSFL

## COc1cc2c(cc1OC)-c1n[nH]c(Nc3ccc(Cl)c(Cl)c3)c1C2
[1]
  IC50: 410 nM

## COc1cc2c(cc1OC)-c1n[nH]c(Nc3cccc(F)c3)c1C2
[2]
  IC50: 9 nM
[3]
  IC50: 10 nM
[4]
  IC50: 378 nM
[5]
  IC50: 4870 nM
[6]
  IC50: 3100 nM
[7]
  IC50: 56700 nM
[8]
  IC50: > 100000 nM
[9]
  IC50: 185 nM
[10]
  IC50: 13000 nM
[11]
  IC50: 27 nM
[12]
  IC50: 13000 nM
[13]
  IC50: 592 nM
[14]
  IC50: > 100000 nM
[15]
  IC50: > 100000 nM
[16]
  IC50: > 100000 nM
[17]
  IC50: 17 nM
[1]
  IC50: 4.2 nM
[18]
  IC50: > 10000 nM
[19]
  IC50: 7 nM
[20]
  IC50: > 100000 nM
[21]
  IC50: > 100000 nM
[22]
  IC50: 32 nM
[23]
  IC50: > 10000 nM
[24]
  IC50: > 10000 nM
[25]
  IC50: > 100000 nM
[26]
  IC50: 45800 nM
[27]
  IC50: 45 nM

## COc1cccc(Nc2[nH]nc3c2Cc2cc(OC)c(OC)cc2-3)c1
[2]
  IC50: 5 nM
[3]
  IC50: 4 nM
[5]
  IC50: 11 nM
[10]
  IC50: > 100000 nM
[13]
  IC50: 355 nM
[17]
  IC50: 4 nM
[19]
  IC50: 4 nM
[22]
  IC50: 33 nM

## COc1cc2c(cc1OC)-c1n[nH]c(Nc3cccc(Br)c3)c1C2
[2]
  IC50: 2 nM
[3]
  IC50: 6 nM
[5]
  IC50: 1480 nM
[10]
  IC50: > 100000 nM
[11]
  IC50: 18 nM
[13]
  IC50: 331 nM
[17]
  IC50: 6 nM
[1]
  IC50: 5 nM
[19]
  IC50: 6 nM
[22]
  IC50: 37 nM

## COc1cc2c(cc1OC)-c1[nH]nc(-c3ccccc3)c1C2
[2]
  IC50: 1200 nM
[3]
  IC50: 8400 nM
[5]
  IC50: 1390 nM
[10]
  IC50: > 50000 nM
[11]
  IC50: 31200 nM
[13]
  IC50: 6820 nM
[17]
  IC50: 2700 nM
[1]
  IC50: 17 nM
[19]
  IC50: 8850 nM
[22]
  IC50: 4410 nM

## COc1cc2c(cc1OC)-c1n[nH]c(Nc3cccc(C(F)(F)F)c3)c1C2
[2]
  IC50: 255 nM
[3]
  IC50: 31 nM
[5]
  IC50: 2500 nM
[10]
  IC50: > 100000 nM
[11]
  IC50: 21 nM
[13]
  IC50: 290 nM
[17]
  IC50: 28 nM
[1]
  IC50: 38 nM
[19]
  IC50: 35 nM
[22]
  IC50: 440 nM

## COc1cc2c(cc1OC)-c1n[nH]c(Nc3cccc(C(=O)O)c3)c1C2
[1]
  IC50: > 800 nM

## COc1cc2c(cc1OC)-c1n[nH]c(Nc3ccc(Cl)cc3Cl)c1C2
[1]
  IC50: 5420 nM

## COc1cc2c(cc1OC)-c1n[nH]c(Nc3cccc(Cl)c3)c1C2
[10]
  IC50: 24000 nM

## COc1cc2c(cc1OC)-c1n[nH]c(Nc3cc(Cl)cc(Cl)c3)c1C2
[1]
  IC50: 310 nM

## COc1cc2c(cc1OC)-c1n[nH]c(Nc3cccc(C)c3)c1C2
[2]
  IC50: 1 nM
[3]
  IC50: 29 nM
[5]
  IC50: 8 nM
[10]
  IC50: > 100000 nM
[13]
  IC50: 4450 nM
[17]
  IC50: 19 nM
[19]
  IC50: 15 nM
[22]
  IC50: 42 nM

## COC(=O)c1cccc(Nc2[nH]nc3c2Cc2cc(OC)c(OC)cc2-3)c1
[1]
  IC50: 33 nM

## COc1cccc2c1Cc1c-2n[nH]c1Nc1ccccc1
[2]
  IC50: 1700 nM
[3]
  IC50: 2800 nM
[5]
  IC50: 283 nM
[10]
  IC50: > 100000 nM
[11]
  IC50: 7340 nM
[13]
  IC50: > 10000 nM
[17]
  IC50: 798 nM
[19]
  IC50: 1190 nM
[22]
  IC50: 4700 nM

## COc1ccc2c(c1)-c1n[nH]c(Nc3ccccc3)c1C2
[2]
  IC50: 14400 nM
[10]
  IC50: > 100000 nM
[11]
  IC50: > 10000 nM
[13]
  IC50: > 10000 nM
[19]
  IC50: > 50000 nM
[22]
  IC50: > 10000 nM

## COc1cc2c(cc1OC)-c1n[nH]c(Nc3cc(Cl)ccc3Cl)c1C2
[1]
  IC50: 6220 nM

## COc1cc2c(cc1OC)-c1n[nH]c(Nc3ccccc3)c1C2
[2]
  IC50: 600 nM
[3]
  IC50: 353 nM
[5]
  IC50: 31 nM
[10]
  IC50: 21000 nM
[11]
  IC50: 108 nM
[13]
  IC50: 2160 nM
[17]
  IC50: 124 nM
[1]
  IC50: 9 nM
[19]
  IC50: 62 nM
[22]
  IC50: 420 nM

From ChEMBL document CHEMBL1140423, “(6,7-Dimethoxy-2,4-dihydroindeno[1,2-c]pyrazol-3-yl)phenylamines: platelet-derived growth factor receptor tyrosine kinase inhibitors with broad antiproliferative activity against tumor cells” (J Med Chem, 2005)
